Source: patent US20230227447A1, “BENZYLAMINE DERIVATIVES AS DDRS INHIBITORS” (CHIESI FARMACEUTICI S.P.A., priority 2020, published 2023)

Legend:
DDR1 = DDR1 (Homo sapiens, UniProt Q08345); test: DDR1 binding assay (LanthaScreen Europium Kinase Binding assay); set-up: purchased Carna Biosciences; settings: 5 nM DDR1, 20 nM Kinase Tracer 178, 1 hour at room temperature; Ki from IC50 by Cheng-Prusoff
Method: (§1) DDR1 and DDR2 binding assays were performed using Life Technologies LanthaScreen™ Europium Kinase Binding assay. The compounds were incubated with 5 nM DDR1 (Carna Biosciences) or 5 nM DDR2 (Life Technologies) for 1 hour at room temperature in white 384-well OptiPlate (PerkinElmer), containing 20 nM or 10 nM Kinase Tracer 178 respectively and 2 nM Europium labelled anti-GST antibody (Life Technologies) in assay buffer (50 mM HEPES pH 7.5, 10 mM MgCl2, 1 mM EGTA and 0.01% BRIJ35).
(§2) The ratio of fluorescence emission 665 nm/615 nm after excitation at 340 nm was obtained using the Tecan Spark 20M plate reader. IC50 values were determined in GraphPad Prism 7.0 software, using 4 parameter model: log(inhibitor) vs. response. IC50 values were converted in Ki using the Cheng-Prusoff equation (Ki=IC50/(1+[Tracer]/Kd).

DDR2 = biological target: T1, DDR2 (Homo sapiens, UniProt Q16832); test: DDR2 binding assay (LanthaScreen Europium Kinase Binding assay); set-up: purchased Life Technologies; settings: 5 nM DDR2, 10 nM Kinase Tracer 178, 1 hour at room temperature; Ki from IC50 by Cheng-Prusoff
T1 sequence (Q16832 22-855): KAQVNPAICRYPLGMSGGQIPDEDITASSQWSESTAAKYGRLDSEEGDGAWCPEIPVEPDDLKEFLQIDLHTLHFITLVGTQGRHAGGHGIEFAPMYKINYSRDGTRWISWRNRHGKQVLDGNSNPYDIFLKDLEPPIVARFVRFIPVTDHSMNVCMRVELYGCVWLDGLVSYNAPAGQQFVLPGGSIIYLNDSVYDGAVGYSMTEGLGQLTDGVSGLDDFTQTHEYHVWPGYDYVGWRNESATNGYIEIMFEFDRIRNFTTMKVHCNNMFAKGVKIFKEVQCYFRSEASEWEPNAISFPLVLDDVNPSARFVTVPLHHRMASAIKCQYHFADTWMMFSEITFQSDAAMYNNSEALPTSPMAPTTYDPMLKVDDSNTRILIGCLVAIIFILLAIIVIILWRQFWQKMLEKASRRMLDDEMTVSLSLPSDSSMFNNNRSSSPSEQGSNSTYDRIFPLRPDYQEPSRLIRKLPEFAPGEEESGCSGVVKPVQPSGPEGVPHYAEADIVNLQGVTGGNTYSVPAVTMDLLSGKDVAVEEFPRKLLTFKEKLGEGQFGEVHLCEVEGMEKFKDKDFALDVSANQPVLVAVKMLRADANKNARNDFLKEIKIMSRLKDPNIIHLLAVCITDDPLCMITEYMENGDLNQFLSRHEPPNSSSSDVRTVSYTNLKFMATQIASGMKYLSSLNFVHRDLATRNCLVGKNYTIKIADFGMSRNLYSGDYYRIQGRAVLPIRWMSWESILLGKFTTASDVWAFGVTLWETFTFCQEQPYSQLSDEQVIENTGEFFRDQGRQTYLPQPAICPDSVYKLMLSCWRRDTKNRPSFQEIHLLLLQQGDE
Method: as §1, §2

DDR1, sequence (Q08345 19-913): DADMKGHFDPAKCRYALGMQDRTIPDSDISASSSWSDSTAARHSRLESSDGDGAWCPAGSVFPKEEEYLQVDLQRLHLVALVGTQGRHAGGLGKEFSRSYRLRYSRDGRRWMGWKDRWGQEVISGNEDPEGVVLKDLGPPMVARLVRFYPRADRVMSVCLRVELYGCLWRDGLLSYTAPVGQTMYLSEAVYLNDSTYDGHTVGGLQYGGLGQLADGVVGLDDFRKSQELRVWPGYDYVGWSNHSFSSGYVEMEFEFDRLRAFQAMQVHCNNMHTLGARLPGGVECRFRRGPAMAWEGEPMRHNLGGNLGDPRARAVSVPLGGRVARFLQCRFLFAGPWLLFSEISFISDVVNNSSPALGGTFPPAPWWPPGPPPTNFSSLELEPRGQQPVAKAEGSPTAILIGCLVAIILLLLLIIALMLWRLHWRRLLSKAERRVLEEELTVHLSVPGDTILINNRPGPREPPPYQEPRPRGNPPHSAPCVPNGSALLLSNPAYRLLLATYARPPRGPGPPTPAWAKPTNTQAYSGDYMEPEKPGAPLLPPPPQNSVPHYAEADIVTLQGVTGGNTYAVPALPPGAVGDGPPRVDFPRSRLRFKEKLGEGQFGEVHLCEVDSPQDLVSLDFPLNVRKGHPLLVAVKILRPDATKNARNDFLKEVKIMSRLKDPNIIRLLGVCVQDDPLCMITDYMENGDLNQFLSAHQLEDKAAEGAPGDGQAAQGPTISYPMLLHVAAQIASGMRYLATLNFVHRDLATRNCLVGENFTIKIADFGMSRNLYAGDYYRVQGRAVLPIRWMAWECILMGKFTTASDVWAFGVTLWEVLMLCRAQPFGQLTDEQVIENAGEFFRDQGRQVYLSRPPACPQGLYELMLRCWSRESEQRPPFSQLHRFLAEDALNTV

For `Cc1cn(-c2cc(NC(=O)c3ccc(C)c(CNC(=O)c4cnc5ccccn45)c3)cc(C(F)(F)F)c2)cn1` [Example 22, N-(2-methyl-5-((3-(4-methyl-1H-imidazol-1-yl)-5-(trifluoromethyl)phenyl)carbamoyl)benzyl)imidazo[1,2-a]pyridine-3-carboxamide], the Ki (DDR1) was < 30 nM and the Ki (DDR2) was < 30 nM.
In the case of `Cc1cn(-c2cc(NC(=O)c3ccc(C)c(CNc4cnc5ccnn5c4)c3)cc(C(F)(F)F)c2)cn1` [Example 1, 4-methyl-N-(3-(4-methyl-1H-imidazol-1-yl)-5-(trifluoromethyl)phenyl)-3-((pyrazolo[1,5-a]pyrimidin-6-ylamino)methyl)benzamide], the Ki (DDR1) is reported as < 30 nM and the Ki (DDR2) is reported as < 30 nM.
`Cc1ccc(C(=O)Nc2cc(CN3CCN(C)CC3)cc(C(F)(F)F)c2)cc1CNC(=O)c1cnc2ccccn12` [Example 21, N-(2-methyl-5-((3-((4-methylpiperazin-1-yl)methyl)-5-(trifluoromethyl)phenyl)carbamoyl)benzyl)imidazo[1,2-a]pyridine-3-carboxamide] was tested, and the Ki (DDR1) was < 30 nM and the Ki (DDR2) was < 30 nM.
With `Cc1cn(-c2cc(NC(=O)c3ccc(C)c(CNc4ccc(C#N)cn4)c3)cc(C(F)(F)F)c2)cn1` [Example 8, 3-(((5-cyanopyridin-2-yl)amino)methyl)-4-methyl-N-(3-(4-methyl-1H-imidazol-1-yl)-5-(trifluoromethyl)phenyl)benzamide] the Ki (DDR1) was 30 to 300 nM and the Ki (DDR2) was 30 to 300 nM.
In the case of `Cc1cn(-c2cc(NC(=O)c3ccc(C)c(CNC(=O)c4cnc5[nH]ccc5c4)c3)cc(C(F)(F)F)c2)cn1` [Example 25, N-(2-methyl-5-((3-(4-methyl-1H-imidazol-1-yl)-5-(trifluoromethyl)phenyl)carbamoyl)benzyl)-1H-pyrrolo[2,3-b]pyridine-5-carboxamide], the Ki (DDR1) is reported as < 30 nM and the Ki (DDR2) is reported as < 30 nM.
`Cc1cn(-c2cc(NC(=O)c3ccc(C)c(CNc4ccnc(C#N)c4)c3)cc(C(F)(F)F)c2)cn1` [Example 7, 3-(((2-cyanopyridin-4-yl)amino)methyl)-4-methyl-N-(3-(4-methyl-1H-imidazol-1-yl)-5-(trifluoromethyl)phenyl)benzamide] gave a Ki (DDR1) of 30 to 300 nM and a Ki (DDR2) of 30 to 300 nM.
With `CCCc1ccc(C(=O)Nc2cc(CN3CCN(C)CC3)cc(C(F)(F)F)c2)cc1CNc1cnc2ccnn2c1` [Example 17, N-(3-((4-methylpiperazin-1-yl)methyl)-5-(trifluoromethyl)phenyl)-4-propyl-3-((pyrazolo[1,5-a]pyrimidin-6-ylamino)methyl)benzamide] the Ki (DDR1) was 30 to 300 nM and the Ki (DDR2) was 30 to 300 nM.
For `Cc1ccc(NC(=O)c2cc(CN3CCN(C)CC3)cc(C(F)(F)F)c2)cc1CNCc1cnc2ccccn12` [Example 13, N-(3-(((imidazo[1,2-a]pyridin-3-ylmethyl)amino)methyl)-4-methylphenyl)-3-((4-methylpiperazin-1-yl)methyl)-5-(trifluoromethyl)benzamide], the Ki (DDR1) was < 30 nM and the Ki (DDR2) was < 30 nM.
For `CNC(=O)c1cc(NCc2cc(C(=O)Nc3cc(CN4CCN(C)CC4)cc(C(F)(F)F)c3)ccc2C)ccn1` [Example 24, N-methyl-4-((2-methyl-5-((3-((4-methylpiperazin-1-yl)methyl)-5-(trifluoromethyl)phenyl)carbamoyl)benzyl)amino)picolinamide], the Ki (DDR1) was < 30 nM and the Ki (DDR2) was < 30 nM.
`Cc1cn(-c2cc(NC(=O)c3ccc(C(F)F)c(CNc4cncnc4)c3)cc(C(F)(F)F)c2)cn1` [Example 36, 4-(difluoromethyl)-N-(3-(4-methyl-1H-imidazol-1-yl)-5-(trifluoromethyl)phenyl)-3-((pyrimidin-5-ylamino)methyl)benzamide] was tested, and the Ki (DDR1) was < 30 nM and the Ki (DDR2) was < 30 nM.
Compound `CC(C)c1ccc(C(=O)Nc2cc(CN3CCN(C)CC3)cc(C(F)(F)F)c2)cc1CNC(=O)c1cnc2[nH]ccc2c1` [Example 27, N-(2-isopropyl-5-((3-((4-methylpiperazin-1-yl)methyl)-5-(trifluoromethyl)phenyl)carbamoyl)benzyl)-1H-pyrrolo[2,3-b]pyridine-5-carboxamide] has a Ki (DDR1) of 300 to 1000 nM and a Ki (DDR2) of 300 to 1000 nM.
In the case of `Cc1ccc(NC(=O)c2cc(CN3CCN(C)CC3)cc(C(F)(F)F)c2)cc1CN(Cc1cnc2ccccn12)Cc1cnc2ccccn12` [Example 12, N-(3-((bis(imidazo[1,2-a]pyridin-3-ylmethyl)amino)methyl)-4-methylphenyl)-3-((4-methylpiperazin-1-yl)methyl)-5-(trifluoromethyl)benzamide], the Ki (DDR1) is reported as < 30 nM and the Ki (DDR2) is reported as 30 to 300 nM.
In the case of `CNC(=O)c1cc(NCc2cc(NC(=O)c3cc(CN4CCN(C)CC4)cc(C(F)(F)F)c3)ccc2C)ccn1` [Example 10, N-methyl-4-((2-methyl-5-(3-((4-methylpiperazin-1-yl)methyl)-5-(trifluoromethyl)benzamido)benzyl)amino)picolinamide], the Ki (DDR1) is reported as < 30 nM and the Ki (DDR2) is reported as 30 to 300 nM.
In the case of `CC(C)c1ccc(C(=O)Nc2cc(CN3CCN(C)CC3)cc(C(F)(F)F)c2)cc1CNc1cncnc1` [Example 30, 4-isopropyl-N-(3-((4-methylpiperazin-1-yl)methyl)-5-(trifluoromethyl)phenyl)-3-((pyrimidin-5-ylamino)methyl)benzamide], the Ki (DDR1) is reported as < 30 nM and the Ki (DDR2) is reported as < 30 nM.
`Cc1ccc(NC(=O)c2cc(CN3CCN(C)CC3)cc(C(F)(F)F)c2)cc1CNCc1cncnc1` [Example 11, N-(4-methyl-3-(((pyrimidin-5-ylmethyl)amino)methyl)phenyl)-3-((4-methylpiperazin-1-yl)methyl)-5-(trifluoromethyl)benzamide] showed a Ki (DDR1) of 300 to 1000 nM and a Ki (DDR2) of 300 to 1000 nM.
`Cc1ccc(NC(=O)c2cc(CN3CCN(C)CC3)cc(C(F)(F)F)c2)cc1CNCc1cnc2[nH]ccc2c1` [Example 15, N-(3-((((1H-pyrrolo[2,3-b]pyridin-5-yl)methyl)amino)methyl)-4-methylphenyl)-3-((4-methylpiperazin-1-yl)methyl)-5-(trifluoromethyl)benzamide] showed a Ki (DDR1) of 30 to 300 nM and a Ki (DDR2) of 30 to 300 nM.
`CC(C)c1ccc(C(=O)Nc2cc(CN3CCN(C)CC3)cc(C(F)(F)F)c2)cc1CNc1cnc2ccnn2c1` [Example 16, 4-isopropyl-N-(3-((4-methylpiperazin-1-yl)methyl)-5-(trifluoromethyl)phenyl)-3-((pyrazolo[1,5-a]pyrimidin-6-ylamino)methyl)benzamide] gave a Ki (DDR1) of 30 to 300 nM and a Ki (DDR2) of 30 to 300 nM.
In the case of `CNC(=O)c1cc(NCc2cc(C(=O)Nc3cc(-n4cnc(C)c4)cc(C(F)(F)F)c3)ccc2C)ccn1` [Example 23, N-methyl-4-((2-methyl-5-((3-(4-methyl-1H-imidazol-1-yl)-5-(trifluoromethyl)phenyl)carbamoyl)benzyl)amino)picolinamide], the Ki (DDR1) is reported as < 30 nM and the Ki (DDR2) is reported as < 30 nM.
For `Cc1cn(-c2cc(NC(=O)c3ccc(C)c(CNc4cnc5[nH]ccc5c4)c3)cc(C(F)(F)F)c2)cn1` [Example 5, 3-(((1H-pyrrolo[2,3-b]pyridin-5-yl)amino)methyl)-4-methyl-N-(3-(4-methyl-1H-imidazol-1-yl)-5-(trifluoromethyl)phenyl)benzamide], the Ki (DDR1) was < 30 nM and the Ki (DDR2) was < 30 nM.
For `CCN(Cc1cc(C(=O)Nc2cc(-n3cnc(C)c3)cc(C(F)(F)F)c2)ccc1C)c1cnc2ccnn2c1` [Example 2, 3-((ethyl(pyrazolo[1,5-a]pyrimidin-6-yl)amino)methyl)-4-methyl-N-(3-(4-methyl-1H-imidazol-1-yl)-5-(trifluoromethyl)phenyl)benzamide], the Ki (DDR1) was < 30 nM and the Ki (DDR2) was 300 to 1000 nM.
`Cc1ccc(C(=O)Nc2cc(CN3CCN(C)CC3)cc(C(F)(F)F)c2)cc1CNC(=O)c1cnc2[nH]ccc2c1` [Example 26, N-(2-methyl-5-((3-((4-methylpiperazin-1-yl)methyl)-5-(trifluoromethyl)phenyl)carbamoyl)benzyl)-1H-pyrrolo[2,3-b]pyridine-5-carboxamide] was tested, and the Ki (DDR1) was < 30 nM and the Ki (DDR2) was < 30 nM.
`Cc1cn(-c2cc(NC(=O)c3ccc(C)c(CNc4ccc5[nH]ncc5c4)c3)cc(C(F)(F)F)c2)cn1` [Example 4, 3-(((1H-indazol-5-yl)amino)methyl)-4-methyl-N-(3-(4-methyl-1H-imidazol-1-yl)-5-(trifluoromethyl)phenyl)benzamide] showed a Ki (DDR1) of 30 to 300 nM and a Ki (DDR2) of 30 to 300 nM.
